According to patent US11084790B2, “Insoluble complex or solvate thereof, pharmaceutical composition and use thereof” (Fruithy Holdings Limited, priority 2017, dated 2021):

Assay: Test on the solubility in media at different pH
Assay type: physicochemical
Experimental: Test on the Solubility in Media at Different pH
About 200 mg of solid powders of Preparation Example 10 and Preparation Example 15 were added in a 500 mL phosphate buffered solution at different pH values (50 mmol/L, pH 5.5, pH 6.5, pH 7.4, and pH 8.0) respectively, placed into a dissolution tester, kept at a constant temperature of 37° C., and paddle stirred at 50 rpm for 72 hours. Appropriate amounts of the suspension were taken out at 15 min, 30 min, 45 min, 1 h, 2 h, 4 h, 6 h, 8 h, 24 h, 32 h, 48 h, and 72 h respectively, and centrifuged immediately (15000 rpm, 5 min). The supernatant was diluted with methanol by a factor of two. The concentration of the drug dissolved in the PB buffer solution was determined with an HPLC-b method.

[1] = phosphate buffer pH 6.5, 37° C., 24 h
[2] = phosphate buffer pH 6.5, 37° C., 32 h
[3] = phosphate buffer pH 6.5, 37° C., 48 h
[4] = phosphate buffer pH 6.5, 37° C., 72 h
[5] = phosphate buffer pH 7.4, 37° C., 0.25 h
[6] = phosphate buffer pH 7.4, 37° C., 0.5 h
[7] = phosphate buffer pH 7.4, 37° C., 0.75 h
[8] = phosphate buffer pH 7.4, 37° C., 1 h
[9] = phosphate buffer pH 7.4, 37° C., 2 h
[10] = phosphate buffer pH 7.4, 37° C., 4 h
[11] = phosphate buffer pH 7.4, 37° C., 6 h
[12] = phosphate buffer pH 7.4, 37° C., 8 h
[13] = phosphate buffer pH 7.4, 37° C., 24 h
[14] = phosphate buffer pH 7.4, 37° C., 32 h
[15] = phosphate buffer pH 7.4, 37° C., 48 h
[16] = phosphate buffer pH 7.4, 37° C., 72 h
[17] = phosphate buffer pH 8.0, 37° C., 0.25 h
[18] = phosphate buffer pH 8.0, 37° C., 0.5 h
[19] = phosphate buffer pH 8.0, 37° C., 0.75 h
[20] = phosphate buffer pH 8.0, 37° C., 1 h
[21] = phosphate buffer pH 8.0, 37° C., 2 h
[22] = phosphate buffer pH 8.0, 37° C., 4 h
[23] = phosphate buffer pH 8.0, 37° C., 6 h
[24] = phosphate buffer pH 8.0, 37° C., 8 h
[25] = phosphate buffer pH 8.0, 37° C., 24 h
[26] = phosphate buffer pH 8.0, 37° C., 32 h
[27] = phosphate buffer pH 8.0, 37° C., 48 h
[28] = phosphate buffer pH 8.0, 37° C., 72 h

CCCCN1CCCCC1C(=O)Nc1c(C)cccc1C.O=C(O)c1cc2ccccc2c(Cc2c(O)c(C(=O)O)cc3ccccc23)c1O [Preparation Example 10, mono(bupivacaine) pamoate]
Molar concentration of Bupivacaine [1]: 0.186 mmol/L | Molar concentration of Pamoic acid [1]: 0.440 mmol/L | Molar concentration of Bupivacaine [2]: 0.15 mmol/L | Molar concentration of Pamoic acid [2]: 0.426 mmol/L | Molar concentration of Bupivacaine [3]: 0.14 mmol/L | Molar concentration of Pamoic acid [3]: 0.428 mmol/L | Molar concentration of Bupivacaine [4]: 0.128 mmol/L | Molar concentration of Pamoic acid [4]: 0.416 mmol/L | Molar concentration of Bupivacaine [5]: 0.0555 mmol/L | Molar concentration of Pamoic acid [5]: 0.0605 mmol/L | Molar concentration of Bupivacaine [6]: 0.095 mmol/L | Molar concentration of Pamoic acid [6]: 0.105 mmol/L | Molar concentration of Bupivacaine [7]: 0.1315 mmol/L | Molar concentration of Pamoic acid [7]: 0.1465 mmol/L | Molar concentration of Bupivacaine [8]: 0.170 mmol/L | Molar concentration of Pamoic acid [8]: 0.190 mmol/L | Molar concentration of Bupivacaine [9]: 0.288 mmol/L | Molar concentration of Pamoic acid [9]: 0.320 mmol/L | Molar concentration of Bupivacaine [10]: 0.386 mmol/L | Molar concentration of Pamoic acid [10]: 0.430 mmol/L | Molar concentration of Bupivacaine [11]: 0.428 mmol/L | Molar concentration of Pamoic acid [11]: 0.476 mmol/L | Molar concentration of Bupivacaine [12]: 0.440 mmol/L | Molar concentration of Pamoic acid [12]: 0.486 mmol/L | Molar concentration of Bupivacaine [13]: 0.426 mmol/L | Molar concentration of Pamoic acid [13]: 0.550 mmol/L | Molar concentration of Bupivacaine [14]: 0.402 mmol/L | Molar concentration of Pamoic acid [14]: 0.592 mmol/L | Molar concentration of Bupivacaine [15]: 0.204 mmol/L | Molar concentration of Pamoic acid [15]: 0.498 mmol/L | Molar concentration of Bupivacaine [16]: 0.166 mmol/L | Molar concentration of Pamoic acid [16]: 0.458 mmol/L | Molar concentration of Bupivacaine [17]: 0.0575 mmol/L | Molar concentration of Pamoic acid [17]: 0.063 mmol/L | Molar concentration of Bupivacaine [18]: 0.099 mmol/L | Molar concentration of Pamoic acid [18]: 0.110 mmol/L | Molar concentration of Bupivacaine [19]: 0.1375 mmol/L | Molar concentration of Pamoic acid [19]: 0.154 mmol/L | Molar concentration of Bupivacaine [20]: 0.178 mmol/L | Molar concentration of Pamoic acid [20]: 0.200 mmol/L | Molar concentration of Bupivacaine [21]: 0.308 mmol/L | Molar concentration of Pamoic acid [21]: 0.344 mmol/L | Molar concentration of Bupivacaine [22]: 0.416 mmol/L | Molar concentration of Pamoic acid [22]: 0.468 mmol/L | Molar concentration of Bupivacaine [23]: 0.494 mmol/L | Molar concentration of Pamoic acid [23]: 0.554 mmol/L | Molar concentration of Bupivacaine [24]: 0.558 mmol/L | Molar concentration of Pamoic acid [24]: 0.624 mmol/L | Molar concentration of Bupivacaine [25]: 0.610 mmol/L | Molar concentration of Pamoic acid [25]: 0.688 mmol/L | Molar concentration of Bupivacaine [26]: 0.622 mmol/L | Molar concentration of Pamoic acid [26]: 0.702 mmol/L | Molar concentration of Bupivacaine [27]: 0.592 mmol/L | Molar concentration of Pamoic acid [27]: 0.694 mmol/L | Molar concentration of Bupivacaine [28]: 0.44 mmol/L | Molar concentration of Pamoic acid [28]: 0.7 mmol/L
